Data reported in patent US20030157162A1, “Liposome-encapsulated opioid analgesics” (priority 2002, published 2003).
Structures can show the parent of a compound that is named as a salt.

How the values were obtained:
dogs = assay: Sedation score, heart rate, respiratory rate, temperature and skin reaction in dogs; assay type: in vivo, dog
Procedure: (§1) Two doses of liposome-encapsulated oxymorphone and two equipotent doses of standard pharmaceutical oxymorphone were investigated. One dose of the liposomal vehicle was also investigated to confirm the absence of pharmacodynamic properties of the vehicle. Each dog received only 1 treatment and was then removed from further study. Treatment groups were as follows: Group 1 (n=6) liposome-encapsulated oxymorphone (1.0 mg/kg); Group 2 (n=5) liposome-encapsulated oxymorphone (0.5 mg/kg); Group 3 (n=6) standard pharmaceutical oxymorphone (NUMORPHAN®, Endo Pharmaceuticals Inc., Chadds Ford, Pa.) (0.1 mg/kg); Group 4 (n=6) standard pharmaceutical oxymorphone (0.05 mg/kg); Group 5 (n=2) liposomal vehicle (0.7 ml). Liposome-encapsulated oxymorphone or vehicle were drawn from a stock solution on ice via an 18 gauge needle attached to a 1- or 3-ml syringe and administered subcutaneously slowly via a 23 gauge needle. All injections were made in a shaved area of the thigh such that potential skin reactions to the liposomal preparations could be assessed.
A sedation score was recorded on each dog prior to drug administration and at the same times as venous blood collection. The sedation score included recording of heart rate by auscultation, respiratory rate by observation of movement of the thoracic wall, and rectal temperature via a digital rectal thermometer. The same person assessed sedation scores throughout the study. Changes in sedation score, heart rate, respiratory rate, and temperature were analyzed using repeated measures ANOVA, with p<0.05 considered significant.

[1] = In vivo pharmacokinetics in dogs (ELISA, NONMEM model, trapezoidal AUC); set-up: species or system dog
From the text: Twenty-five adult beagles (n=14; 12 female, 2 male) and hounds (n=11; 9 female, 2 male) that were 1 to 5 years old (median age 1.5 years) and weighed between 6.9 kg and 35.7 kg (median weight=9.46 kg) were used. Normal health status and organ function were confirmed by physical exam and a complete blood count and serum chemistry profile prior to inclusion in the study. None of the animals received any medications in the 2 weeks prior to study. Animals were housed individually (hounds) or in groups of 2 to 4 (beagles), and were fed a commercial diet and water ad libitum throughout the study.
as §1
A 1 ml blood sample was collected percutaneously from the left and right cephalic or saphenous veins, in rotating order. In groups 1 and 2 (liposome-encapsulated oxymorphone groups), blood was collected before and 0.5, 1, 2, 4, 8, 12, 16, and 24 hours after drug administration, and daily for 5 days at the same time of day as treatment administration had occurred. In groups 3, 4, and 5 (standard oxymorphone and liposomal vehicle groups), blood was collected before and 0.5, 1, 2, 4, 8, 12, and 24 hours after drug administration. Blood samples were transferred to centrifuge tubes and held on ice for a maximum of 4 hours, then centrifuged at 5° C. for 10 minutes at 5000×g. Serum was stored at −70° C. until analysis.
Oxymorphone concentrations in serum were quantitated using a commercial ELISA (Neogen Inc, Lexington, Ky.).
Plasma oxymorphone concentrations were used in pharmacokinetic model building using a non-linear, mixed effect computer program (NONMEM User's Guides, (1989-98) Beal and Sheiner (Eds.) GloboMax, LLC, Hanover, Md.). The data from all animals were evaluated concurrently. The assumption was made that the subcutaneous injection of the standard and liposomal oxymorphone delivered drug to an extravascular compartment from which unidirectional absorption into the blood occurred. In the case of the liposomal preparation, an additional, unidirectional rate constant of flux from the liposome to the surrounding subcutaneous compartment was assumed.
This was tested in the pharmacokinetic model construction with allowance for a variable (fitted) fraction of the liposomal dose administered directly to the subcutaneous space in the aqueous carrier.
The NONMEM model included an intersubject variability for the parameters of distribution volume, fraction of drug delivered to of the liposome, and drug flux into and out of the plasma. The first-order rate of drug loss from the liposome was assumed to be a physiochemical constant, and was not allowed to vary between animals. Animal weight and sex were tested as continuous and categorical covariates affecting volume and clearance. Pharmacokinetic models that included a tissue distribution compartment were over-parameterized and were discarded. […]

CN1CC[C@]23c4c5ccc(O)c4O[C@H]2C(=O)CC[C@@]3(O)[C@H]1C5 [standard oxymorphone, oxymorphone hydrochloride]
time of peak sedation score (dogs; 0.05 and 0.1 mg/kg): 30 min
respiratory rate and rectal temperature compared to baseline (dogs; either dose): moderate and statistically insignificant decrease
local skin reactions at the site of injection (dogs; s.c.): no local skin reactions
heart rate from baseline to 2 hours after drug administration (dogs; within clinically normal range): significant decrease
AUC (dose-normalised, median) ([1]; 0.05 mg/kg): 128.0 (ng-hr/L)/mg/kg)
K23 (from subcutaneous tissue to systemic tissue) ([1]; 0.05 mg/kg): 0.400 h⁻¹
K30 (from systemic tissue to excretion from body) ([1]; 0.05 mg/kg): 5.40 h⁻¹
V ([1]; 0.05 mg/kg): 2.03 L
AUC (dose-normalised, median) ([1]; 0.1 mg/kg): 135.9 (ng-hr/L)/mg/kg)
K23 (from subcutaneous tissue to systemic tissue) ([1]; 0.1 mg/kg): 0.348 h⁻¹
K30 (from systemic tissue to excretion from body) ([1]; 0.1 mg/kg): 7.19 h⁻¹
V ([1]; 0.1 mg/kg): 1.50 L
